Test results reported in patent US11247971B2, “Small molecule inhibitors of lactate dehydrogenase and methods of use thereof” (THE UNITED STATES OF AMERICA, AS REPRESENTED BY THE …, priority 2014, dated 2022).

Experiments:
MiaPaCa2 cells = assay: cell-based HT Lactate assay, colorimetric/fluorometric detection (inhibition of lactate production); conditions: class symbols
Experimental: Cell-based HT Lactate assay is a miniaturized Biovision Lactate Colorimetric/Fluorometric Assay Kit (Cat #K607-100). The assay is roughly a 3.5 hour assay run in a 1536 plate format. Cell number optimization should be run for each cell line to achieve an optimal number in which lactate production equals roughly 90% of the standard curve range. Cell number per well optimization has been performed with the following cell lines: MiaPaCa2—500 cells/well, SNU398—500 cells/well, and P493—500 cells/well.
The lactate activity in Table 8 is represented by 0 to 3 pluses as follows: […]; ++1-10 μM; +10-57 μM; and −>57 μM.

Human LDHA = Human LDHA (Homo sapiens (Human), UniProt P00338); assay: human LDHA primary biochemical assay; conditions: read-out: Inhibitory activity IC50, assay of Example 1, activity level classes
Source text: This example describes a human LDHA primary biochemical assay employed in the characterization of a compound of formula (I) in an embodiment of the invention.
Test compounds were placed in a Greiner Bio-One (Monroe, N.C.) 1536-well black solid bottom assay plate. 200 millimolar (mM) Tris HCl, pH 7.4, 100 micromolar (μM) EDTA and 0.01% TWEEN-20™, final concentration, was used as the assay buffer. The LDHA reagent was 2 nanomolar (nM) Human LDHA (Meridian Life Science, Inc., Memphis, Tenn.), final concentration, in assay buffer. The substrate reagent was 0.06 mM NADH and 0.2 mM sodium pyruvate, final concentration, in assay buffer. […] The inhibition of LDHA activity was measured by fluorescence emission.

[1] = pharmacokinetics after oral administration in mice; format: in vivo; conditions: male CD1 mice, oral 10 mg/kg

Row | Molecule | IC50 (MiaPaCa2 cells) [nM] | IC50 (Human LDHA) [nM] | F (fraction of the dose that enters systemic circulation) [1] [%] | AUClast ([1]; plasma, LC/MS/MS) [ng·h/mL] | Cmax ([1]; plasma, LC/MS/MS) [ng/mL]
1 | 2-(3-(3′-amino-[1,1′-biphenyl]-3-yl)-4-(4-sulfamoylbenzyl)-1H-pyrazol-1-yl)thiazole-4-carboxylic acid [Compound 523] | 1000 to 10000 | 100 to 1000 | – | – | –
2 | NS(=O)(=O)c1ccc(Cc2c(-c3cccc(-c4ccccc4)c3)nn(-c3nc(C(=O)O)cs3)c2C(F)(F)F)cc1 [Compound 42, 2-(3-([1,1′-biphenyl]-3-yl)-4-(4-sulfamoylbenzyl)-5-(trifluoromethyl)-1H-pyrazol-1-yl)thiazole-4-carboxylic acid] | – | – | 34 | – | –
3 | CCOC(=O)c1csc(-n2nc(-c3cccc(-c4ccccc4)c3)c(Cc3ccc(S(N)(=O)=O)cc3)c2C(F)(F)F)n1 [Compound 141, ethyl 2-(3-([1,1′-bipheny]-3-yl)-4-(4-sulfamoylbenzyl)-5-(trifluoromethyl)-1H-pyrazol-1-yl)thiazole-4-carboxylate] | – | – | 69 | 2409 | 851
4 | NS(=O)(=O)c1ccc(Cc2c(-c3ccc(F)c(OC4CC4)c3)nn(-c3nc(C(=O)O)cs3)c2CC2CC2)cc1F [Compound 471, 2-(3-(3-cyclopropoxy-4-fluorophenyl)-5-(cyclopropylmethyl)-4-(3-fluoro-4-sulfamoylbenzyl)-1H-pyrazol-1-yl)thiazole-4-carboxylic acid] | – | < 100 | – | – | –
